This is an account of results in patent US20250179103A1, “6-OXODECAHYDROPYRROLO[1,2-A][1,5]DIAZOCINE AND 6-OXODECAHYDRO-4H-PYRROLO[2,1-D][1,5]THIAZOCINE DERIVATIVES AS STAT3 AND STAT6 MODULATORS FOR THE TREATMENT OF CANCER AND INFLAMMATORY CONDITIONS” (Recludix Pharma, Inc., priority 2022, published 2025).

Test [1] addresses T1, Recombinant STAT6 protein (STAT6(W123-T658)) (Homo sapiens, UniProt P42226).
T1 construct: Recombinant STAT6 protein (STAT6(W123-T658))
T1 sequence (P42226 123-658): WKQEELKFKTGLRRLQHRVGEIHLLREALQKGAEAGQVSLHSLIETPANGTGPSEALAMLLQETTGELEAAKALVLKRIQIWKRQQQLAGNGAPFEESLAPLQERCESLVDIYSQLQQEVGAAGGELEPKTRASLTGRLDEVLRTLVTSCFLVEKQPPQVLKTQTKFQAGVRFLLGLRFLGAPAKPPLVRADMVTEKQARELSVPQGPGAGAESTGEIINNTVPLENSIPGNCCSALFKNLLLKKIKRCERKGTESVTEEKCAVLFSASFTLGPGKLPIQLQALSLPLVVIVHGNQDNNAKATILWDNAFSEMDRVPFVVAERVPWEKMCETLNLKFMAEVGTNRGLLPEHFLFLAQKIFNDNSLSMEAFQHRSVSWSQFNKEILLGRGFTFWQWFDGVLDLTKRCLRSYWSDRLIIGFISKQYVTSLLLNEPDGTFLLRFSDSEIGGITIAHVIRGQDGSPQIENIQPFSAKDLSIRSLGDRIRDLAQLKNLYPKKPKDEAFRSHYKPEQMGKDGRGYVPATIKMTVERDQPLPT
Briefly: STAT6 Fluorescence Polarization (FP) Assay. It is filed as binding. The following applies: STAT6(W123-T658) 250 nM, probe 5-FAM-ApYKPFQDLI-NH2 2 nM, 45-minute incubation. In outline:
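Displacement of a fluorescent phosphotyrosine peptide (5-FAM-ApYKPFQDLI-NH2, 2 nM) from STAT6(W123-T658) (250 nM), 1% DMSO, pH 7.4 HEPES buffer. After 45 min at room temperature, polarization (mP) was plotted versus log compound concentration and fitted by nonlinear regression to give IC50.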
On the technique in general: Polarisation of emitted light reports the rotation of a fluorescent probe.

In test [2] the target is T2, Recombinant STAT3 protein (STAT3(G127-I722)) (Homo sapiens, UniProt P40763).
T2 construct: Recombinant STAT3 protein (STAT3(G127-I722))
T2 sequence (P40763 127-722): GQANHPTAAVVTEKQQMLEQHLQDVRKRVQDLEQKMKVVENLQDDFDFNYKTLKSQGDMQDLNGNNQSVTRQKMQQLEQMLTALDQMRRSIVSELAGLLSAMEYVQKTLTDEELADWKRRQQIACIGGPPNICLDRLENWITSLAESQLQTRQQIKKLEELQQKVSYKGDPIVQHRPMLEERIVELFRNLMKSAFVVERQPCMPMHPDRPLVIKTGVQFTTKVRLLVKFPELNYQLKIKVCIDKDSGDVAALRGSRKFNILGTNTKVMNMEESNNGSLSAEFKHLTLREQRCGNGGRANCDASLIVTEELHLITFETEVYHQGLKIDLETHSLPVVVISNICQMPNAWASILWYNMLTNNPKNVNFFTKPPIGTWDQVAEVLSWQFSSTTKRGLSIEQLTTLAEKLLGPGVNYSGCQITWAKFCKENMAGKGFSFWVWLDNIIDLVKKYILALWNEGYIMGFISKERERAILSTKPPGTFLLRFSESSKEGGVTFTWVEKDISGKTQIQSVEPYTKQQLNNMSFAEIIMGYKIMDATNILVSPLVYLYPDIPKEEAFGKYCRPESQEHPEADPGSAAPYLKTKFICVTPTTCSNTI
Briefly: STAT3 Fluorescence Polarization (FP) Assay. It is filed as binding. The following applies: STAT3(G127-I722) 25 nM, probe 5-FAM-GpYLPQTV-NH2 2 nM, 45-minute incubation. In outline:
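Fluorescence polarization after a 45-min room-temperature incubation measured compound displacement of a 2 nM fluorescein-labelled phosphotyrosine peptide (5-FAM-GpYLPQTV-NH2) from 25 nM recombinant STAT3(G127-I722). Buffer was 10 mM HEPES pH 7.4 with 1% DMSO final. IC50s were fitted by nonlinear regression of mP against log concentration.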

A value given as a limit tells only on which side of the number the result lay.

For `CCC(=O)N(C)[C@@H]1CCN(C(=O)[C@@H]2CC[C@@H]3CCN(C(C)=O)C[C@H](NC(=O)c4cc5cc(C(F)(F)P(=O)(O)O)ccc5[nH]4)C(=O)N32)C1` [Compound 23, ((2-(((5S,8S,10aR)-3-acetyl-8-((R)-3-(N-methylpropionamido)pyrrolidine-1-carbonyl)-6-oxodecahydropyrrolo[1,2-a][1,5]diazocin-5-yl)carbamoyl)-1H-indol-5-yl)difluoromethyl)phosphonic acid], the values for the IC50 in test [1] and in test [2] were 300 to 3000 nM and 1000 to 10000 nM, respectively.

With `CC(=O)N1CC[C@H]2CC[C@@H](C(=O)N3CC(c4ccn(C)c(=O)c4)CC34CC4)N2C(=O)[C@@H](NC(=O)c2ccc3ccc(C(F)P(=O)(O)O)cc3c2)C1` (stereo partly drawn) [Compound 354, ((7-(((5S,8S,10a R)-3-acetyl-8-(6-(1-methyl-2-oxo-1,2-dihydropyridin-4-yl)-4-azaspiro[2.4]heptane-4-carbonyl)-6-oxodeca-hydropyrrolo [1,2-a][1,5]diazocin-5-yl)carbamoyl)naphthalen-2-yl)fluoromethyl) phosphonic acid], the IC50 (in general, the concentration that gives 50% inhibition) in test [1] is at most 300 nM; in test [2] it was above 10000 nM.

Take `CC(=O)N1CC[C@H]2CC[C@@H](C(=O)N3CCC(N(Cc4noc(C5CC5)n4)C(C)=O)C3)N2C(=O)[C@@H](NC(=O)c2cc3cc(C(F)(F)P(=O)(O)O)ccc3s2)C1` (stereo partly drawn) [Compound 85, ((2-(((5S,8S,10aR)-3-acetyl-8-(3-(N-((5-cyclopropyl-1,2,4-oxadiazol-3-yl)methyl)acetamido)pyrrolidine-1-carbonyl)-6-oxodecahydropyrrolo[1,2-a][1,5]diazocin-5-yl)carbamoyl)benzo[b]thiophen-5-yl)difluoromethyl)phosphonic acid]: the IC50 in test [1] lay within 300 to 3000 nM; in test [2] it was 1000 to 10000 nM.

Consider `O=C(N[C@H]1CN(C(=O)OCc2ccccc2)CC[C@H]2CC[C@@H](C(=O)Nc3ccc(-c4ccccc4)cc3)N2C1=O)c1cc2cc(C(F)(F)P(=O)(O)O)ccc2s1` [Compound 252, ((2-(((5S,8S,10aR)-8-([1,1′-biphenyl]-4-ylcarbamoyl)-3-((benzyloxy)carbonyl)-6-oxodecahydropyrrolo[1,2-a][1,5]diazocin-5-yl)carbamoyl)benzo[b]thiophen-5-yl)difluoromethyl)phosphonic acid], for which the values for the IC50 in test [1] and in test [2] were 300 to 3000 nM and 1000 to 10000 nM, respectively.

On to `CC(=O)N1CC[C@H]2CC[C@@H](C(=O)N(C)c3ccccc3)N2C(=O)[C@@H](NC(=O)c2ccc3ccc(C(F)P(=O)(O)O)cc3c2)C1` (stereo partly drawn) [Compound 14, ((7-(((5S,8S,10aR)-3-acetyl-8-(methyl(phenyl)carbamoyl)-6-oxodecahydropyrrolo[1,2-a][1,5]diazocin-5-yl)carbamoyl)naphthalen-2-yl)fluoromethyl)phosphonic acid], for which the IC50 in test [1] was 300 to 3000 nM; in test [2], above 10000 nM.

`N#C[C@@H]1CN(C(=O)[C@@H]2CC[C@@H]3CCN(CC(F)F)C[C@H](NC(=O)c4ccc5ccc(C(F)(F)P(=O)(O)O)cc5c4)C(=O)N32)C[C@H]1c1ccccc1` (single isomer, unassigned) [Compound 248, ((7-(((5S,8S,10aR)-8-((3S,4R or 3R,4S)-3-cyano-4-phenylpyrrolidine-1-carbonyl)-3-(2,2-difluoroethyl)-6-oxodecahydropyrrolo[1,2-a][1,5]diazocin-5-yl)carbamoyl)naphthalen-2-yl)difluoromethyl)phosphonic acid]: the IC50 in test [1] was at most 300 nM; in test [2] it was 1000 to 10000 nM.

In the case of `CC(=O)N1CC[C@H]2CC[C@@H](C(=O)N(C)c3ccccc3)N2C(=O)[C@@H](NC(=O)c2cc3cc(C(F)(F)P(=O)(O)O)ccc3s2)C1` [Compound 109, ((2-(((5S,8S,10aR)-3-acetyl-8-(methyl(phenyl)carbamoyl)-6-oxodecahydropyrrolo[1,2-a][1,5]diazocin-5-yl)carbamoyl)benzo[b]thiophen-5-yl)difluoromethyl)phosphonic acid], the IC50 lay in the range of 300 to 3000 nM in test [1] and 1000 to 10000 nM in test [2].

On to `CCN1CC[C@H]2CC[C@@H](C(=O)N3C[C@@H](C#N)[C@H](c4cc[nH]c(=O)c4)C3)N2C(=O)[C@@H](NC(=O)c2ccc3ccc(C(F)(F)P(=O)(O)O)cc3c2)C1` (single isomer, unassigned) [Compound 238, ((7-(((5S,8S,10aR)-8-((3R,4S or 3S,4R)-3-cyano-4-(2-oxo-1,2-dihydropyridin-4-yl)pyrrolidine-1-carbonyl)-3-ethyl-6-oxodecahydropyrrolo[1,2-a][1,5]diazocin-5-yl)carbamoyl)naphthalen-2-yl)difluoromethyl)phosphonic acid], for which the IC50 in test [1] lay in the range of 300 to 3000 nM; in test [2], 1000 to 10000 nM.

As to `CC(=O)N1CC[C@H]2CC[C@@H](C(=O)N3C[C@@H](C#N)[C@H](c4cc[nH]c(=O)c4)C3)N2C(=O)[C@@H](NC(=O)c2ccc3ccc(C(F)(F)P(=O)(O)O)cc3c2)C1` (single isomer, unassigned) [Compound 39, ((7-(((5S,8S,10aR)-3-acetyl-8-((3S,4R or 3R,4S)-3-cyano-4-(2-oxo-1,2-dihydropyridin-4-yl)pyrrolidine-1-carbonyl)-6-oxodecahydropyrrolo[1,2-a][1,5]diazocin-5-yl)carbamoyl)naphthalen-2-yl)difluoromethyl)phosphonic acid], the IC50 in test [1] was at most 300 nM; in test [2], 1000 to 10000 nM.

For the compound `CC(=O)N1CC[C@H]2CC[C@@H](C(=O)N3CC(c4ccccc4)C3)N2C(=O)[C@@H](NC(=O)c2cc3cc(C(F)(F)P(=O)(O)O)ccc3[nH]2)C1` [Compound 100, ((2-(((5S,8S,10aR)-3-acetyl-6-oxo-8-(3-phenylazetidine-1-carbonyl)decahydropyrrolo[1,2-a][1,5]diazocin-5-yl)carbamoyl)-1H-indol-5-yl)difluoromethyl)phosphonic acid], the IC50 in test [1] fell in the range of 300 to 3000 nM; in test [2] it was 100 to 1000 nM.

Consider `CC(=O)N1CC[C@H]2CC[C@@H](C(=O)N3CC(C(=O)N4CCCCC4)C3)N2C(=O)[C@@H](NC(=O)c2cc3cc(C(F)(F)P(=O)(O)O)ccc3[nH]2)C1` [Compound 128, ((2-(((5S,8S,10aR)-3-acetyl-6-oxo-8-(3-(piperidine-1-carbonyl)azetidine-1-carbonyl)decahydropyrrolo[1,2-a][1,5]diazocin-5-yl)carbamoyl)-1H-indol-5-yl)difluoromethyl)phosphonic acid], for which the IC50 in test [1] fell in the range of 300 to 3000 nM; in test [2] it was 100 to 1000 nM.

On to `N#Cc1ccccc1-c1ccc(NC(=O)[C@@H]2CC[C@@H]3CCN(C(=O)Cc4ccccc4)C[C@H](NC(=O)c4cc5cc(C(F)(F)P(=O)(O)O)ccc5[nH]4)C(=O)N32)cc1` [Compound 266, ((2-(((5S,8S,10aR)-8-((2′-cyano-[1,1′-biphenyl]-4-yl)carbamoyl)-6-oxo-3-(2-phenylacetyl)decahydropyrrolo[1,2-a][1,5]diazocin-5-yl)carbamoyl)-1H-indol-5-yl)difluoromethyl)phosphonic acid], for which the figures for the IC50 in test [1] and in test [2] were at most 300 nM and 100 to 1000 nM, respectively.

Take `CC(=O)N1CC[C@H]2CC[C@@H](C(=O)Nc3ccc(S(C)(=O)=O)cc3)N2C(=O)[C@@H](NC(=O)c2cc3cc(C(F)(F)P(=O)(O)O)ccc3s2)C1` [Compound 70, ((2-(((5S,8S,10aR)-3-acetyl-8-((4-(methylsulfonyl)phenyl)carbamoyl)-6-oxodecahydropyrrolo[1,2-a][1,5]diazocin-5-yl)carbamoyl)benzo[b]thiophen-5-yl)difluoromethyl)phosphonic acid]: the figures for the half-inhibitory concentration (IC50) in test [1] and in test [2] were 300 to 3000 nM and 1000 to 10000 nM, respectively.

As for `Cc1ccc2[nH]nc(C(=O)N3CC[C@H]4CC[C@@H](C(=O)N5C[C@H](c6ccccc6)[C@@H](C#N)C5)N4C(=O)[C@@H](NC(=O)c4ccc5ccc(C(F)(F)P(=O)(O)O)cc5c4)C3)c2c1` (relative stereo) [Compound 236, ((7-(((5S,8S,10aR)-8-((rel-trans)-3-cyano-4-phenylpyrrolidine-1-carbonyl)-3-(5-methyl-1H-indazole-3-carbonyl)-6-oxodecahydropyrrolo[1,2-a][1,5]diazocin-5-yl)carbamoyl)naphthalen-2-yl)difluoromethyl)phosphonic acid], the IC50 in test [1] is at most 300 nM; in test [2] it was 100 to 1000 nM.

As for `CC(=O)N1CC[C@H]2CC[C@@H](C(=O)N(C)c3ccc(C#N)cc3)N2C(=O)[C@@H](NC(=O)c2cc3cc(C(F)(F)P(=O)(O)O)ccc3s2)C1` [Compound 123, ((2-(((5S,8S,10aR)-3-acetyl-8-((4-cyanophenyl)(methyl)carbamoyl)-6-oxodecahydropyrrolo[1,2-a][1,5]diazocin-5-yl)carbamoyl)benzo[b]thiophen-5-yl)difluoromethyl)phosphonic acid], the IC50 lay in the range of 3000 to 30000 nM in test [1] and 1000 to 10000 nM in test [2].
